Literature values as cited in patent US20070275941A1, “SALT SENSITIVITY AND PREVENTION OF HYPERTENSION WITH DROSPIRENONE” (priority 2006, published 2007).

Test system: postmenopausal women with hypertension

SMILES: C[C@]12CCC(=O)C=C1[C@@H]1C[C@@H]1[C@H]1[C@@H]3[C@@H]4C[C@@H]4[C@@]4(CCC(=O)O4)[C@@]3(C)CC[C@@H]12 [drospirenone]
- potassium sparing effect (clinical studies): demonstrated a potassium sparing effect
- blood pressure reduction (postmenopausal women with hypertension, alone or in combination with other agents): consistently and substantially reduce blood pressure
